Reference: patent US11498930B2 (BLUERAY THERAPEUTICS (SHANGHAI) CO., LTD., priority 2018, dated 2022)
Like-named read-outs stand apart in the source and are kept apart here.

What was measured:
[1] = tested on: MOLM-13 cells; assay: MOLM-13 cell proliferation experiment; type: cell-based; settings: Homo sapiens
Method: After 3 days, 5 µL of CellTiter-Glo reagent (Promega, ZG7572) was added to each well, and the plates were kept at room temperature in the dark for 10 minutes. The […] was detected by Spectra max i3 (Molecular Devices). The relative growth rate of the treated cells was compared with that of DMSO control.

[2] = tested on: phosphorylation level of intracellular protein kinase (ERK) in MOLM13 cells; assay: Phosphorylated protein kinase (p-ERK) cell experiment (AlphaLISA); type: cell-based
Method: The inhibitory activities of the compounds on the phosphorylation level of intracellular protein kinase (ERK) were determined by AlphaLISA method.
Firstly, the cells were treated with the compounds. The compounds to be tested were subjected to 3-fold dilution with 100% DMSO, and a total of 9 different concentration gradients were set. MOLM13 cells were then seeded into 96-well plates at a density of 30,000 cells per well in a volume of 100 µL per well. […] of DMSO or the test compounds with different concentrations was then transferred into each well, setting two duplicates for each concentration, and the final concentration of DMSO was controlled at 0.5%.
Secondly, the cells were lysed. After 2 hours of cell treatment, the medium was removed, and the cells were washed 3 times with phosphate buffered saline. 50 µL of freshly prepared lysis buffer was added to each well, and the plates were shaken and kept at room temperature for 10 minutes.
Thirdly, the phosphorylated extracellular signal-regulated kinase (p-ERK) was detected by AlphaLISA@ SureFire® Ultra™ p-ERK 1/2 (Thr202/Tyr204) kit (Perkin Elmer, ALSU-PERK-A10K). 10 µL of the above lysate was transferred to a 384-well plate (Perkin Elmer, 6005350), and the phosphorylation level of the extracellular signal-regulated kinase of the sample was detected according to the product instructions. The signal was read using AlphaScreen detector on Spectra max i3 (Molecular Devices). The percentage of inhibition (%) was calculated by the following formula: Inhibition percentage(%)=(1−p-ERK signal of compound-treated cells/p-ERK signal of DMSO-treated cells)*100

[3] = target: SHP2^E76A protein (Homo sapiens (Human), UniProt Q06124, E76A); assay: SHP2 enzyme activity inhibition experiment; type: biochemical
Chain of SHP2^E76A protein (Q06124 whole entry E76A): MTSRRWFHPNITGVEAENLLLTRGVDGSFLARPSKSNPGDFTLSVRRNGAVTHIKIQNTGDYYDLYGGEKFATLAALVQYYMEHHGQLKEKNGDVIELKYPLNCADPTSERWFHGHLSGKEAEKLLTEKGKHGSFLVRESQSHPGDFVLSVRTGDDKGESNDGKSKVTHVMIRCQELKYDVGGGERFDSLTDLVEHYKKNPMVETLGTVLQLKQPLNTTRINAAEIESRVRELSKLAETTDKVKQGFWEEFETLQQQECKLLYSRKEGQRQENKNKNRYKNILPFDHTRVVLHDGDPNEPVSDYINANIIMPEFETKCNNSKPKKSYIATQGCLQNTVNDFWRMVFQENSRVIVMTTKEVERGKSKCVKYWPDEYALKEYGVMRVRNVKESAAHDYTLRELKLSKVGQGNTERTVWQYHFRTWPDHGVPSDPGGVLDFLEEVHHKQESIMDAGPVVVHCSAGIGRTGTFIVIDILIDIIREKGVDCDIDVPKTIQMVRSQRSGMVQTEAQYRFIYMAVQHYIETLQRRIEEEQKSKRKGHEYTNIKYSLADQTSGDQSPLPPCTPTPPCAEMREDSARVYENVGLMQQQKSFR
Method: Compound powders were dissolved in DMSO to prepare mother liquor.
During the experiment, the stock solutions of the compounds were subjected to 3-fold gradient dilution with DMSO, and 10 different test concentrations of each compound were set. […] The protein used was the activated protein SHP^2E76A with amino acid mutation at position 76 of the protein, and the substrate used was DiFMUP (Invitrogen, E12020). […] 50 µL of enzyme solution was added to the detection wells, followed by 50 µL of substrate. […] GraphPad Prism 5 was used for nonlinear regression analysis, and the curve of enzyme activity versus compound concentration was fitted by the equation Y=Bottom+(Top-Bottom)/(1+10^((Log IC50−X)*HillSlope)) to calculate the IC50 value of each compound.

[4] = MOLM-13, read-out: MOLM-13 cell proliferation IC50
[5] = Homo sapiens, MOLM-13, MOLM13 cells, Table 4, read-out: p-ERK IC50
[6] = Homo sapiens, MOLM-13, p-ERK, MOLM13 cells, 2 hours of cell treatment, Tables 2.1 and 2.2, read-out: IC50
[7] = Table 4, read-out: SHP2 enzyme activity IC50
[8] = MOLM-13, 72 h, MOLM-13 cell proliferation, 3 days, Tables 3.1 and 3.2, read-out: IC50
[9] = SHP2 enzyme activity, Tables 1.1 and 1.2, read-out: IC50
[10] = p-ERK, MOLM13 cells, 2 hours of cell treatment, Tables 2.1 and 2.2, read-out: IC50

| SMILES | IC50 [2, 6] [nM] | IC50 [1, 8] [nM] | IC50 [3, 9] [nM] | also measured |
| --- | --- | --- | --- | --- |
| C[C@@H]1OCC2(CCN(c3ncc(Sc4cc(N)ncc4Cl)c4nccn34)CC2)[C@@H]1N [(3S,4S)-8-(8-((2-amino-5-chloro-pyridin-4-yl)thio)imidazo[1,2-c]pyrimidin-5-yl)-3-methyl-2-oxa-8-azaspiro[4.5]decan-4-amine] | < 100 | – | – | IC50 [1, 4]: 180 nM; IC50 [2, 5]: 94 nM; IC50 [3, 7]: 21 nM |
| Cc1nccc(Sc2cnc(N3CCC4(CC3)CO[C@@H](C)[C@H]4N)n3ccnc23)c1Cl [(3S,4S)-8-(8-((3-chloro-2-methylpyridin-4-yl)thio)imidazo[1,2-c]pyrimidin-5-yl)-3-methyl-2-oxa-8-azaspiro[4.5]decan-4-amine] | < 100 | < 100 | < 100 | IC50 [1, 4]: 50 nM; IC50 [2, 5]: 19 nM; IC50 [3, 7]: 15 nM |
| N[C@@H]1CC(F)(F)CC12CCN(c1ncc(Sc3cccc(Cl)c3Cl)c3nccn13)CC2 [(R)-8-(8-((2,3-dichlorophenyl)thio)imidazo[1,2-c]pyrimidin-5-yl)-3,3-difluoro-8-azaspiro[4.5]decan-1-amine] | 100 to 1000 | 100 to 1000 | < 100 | – |
| Nc1cc(Sc2cnc(N3CCC4(CCC[C@H]4N)CC3)n3ccnc23)c(Cl)c(Cl)n1 [(R)-8-(8-((6-amino-2,3-dichloropyridin-4-yl)thio)imidazo[1,2-c]pyrimidin-5-yl)-8-azaspiro[4.5]decan-1-amine] | < 100 | < 100 | < 100 | IC50 [1, 4]: 16 nM; IC50 [2, 5]: 9 nM; IC50 [3, 7]: 12 nM |
| CC1(CN)CCN(c2ncc(Sc3cccc(Cl)c3Cl)c3nncn23)CC1 [(1-(8-((2,3-dichlorophenyl)thio)-[1,2,4]triazolo[4,3-c]pyrimidin-5-yl)-4-methylpiperidin-4-yl)methanamine] | 100 to 1000 | 1000 to 10000 | < 100 | IC50 [1, 4]: 1360 nM; IC50 [2, 5]: 170 nM; IC50 [3, 7]: 40 nM |
| Cc1nccc(Sc2cnc(N3CCC4(CC3)CO[C@@H](C)[C@H]4N)n3cnnc23)c1Cl [(3S,4S)-8-(8-((3-chloro-2-methylpyridin-4-yl)thio)-[1,2,4]triazolo[4,3-c]pyrimidin-5-yl)-3-methyl-2-oxa-8-azaspiro[4.5]decan-4-amine] | 100 to 1000 | – | < 100 | IC50 [1, 4]: 277 nM; IC50 [2, 5]: 369 nM; IC50 [3, 7]: 17 nM |
| COc1ccccc1Sc1cnc(N2CCC3(CCC[C@H]3N)CC2)n2ccnc12 [(R)-8-(8-((2-methoxyphenyl)thio)imidazo[1,2-c]pyrimidin-5-yl)-8-azaspiro[4.5]decan-1-amine] | 100 to 1000 | 100 to 1000 | < 100 | IC50 [1, 4]: 210 nM; IC50 [2, 5]: 469 nM; IC50 [3, 7]: 83 nM |
| N[C@@H]1CCOC12CCN(c1ncc(Sc3cccc(Cl)c3Cl)c3nccn13)CC2 [(R)-8-(8-((2,3-dichlorophenyl)thio)imidazo[1,2-c]pyrimidin-5-yl)-1-oxa-8-azaspiro[4.5]decan-4-amine] | 100 to 1000 | – | 100 to 1000 | – |
| CC(C)c1ccccc1Sc1cnc(N2CCC3(CCC[C@H]3N)CC2)n2cnnc12 [(R)-8-(8-((2-isopropylphenyl)thio)-[1,2,4]triazolo[4,3-c]pyrimidin-5-yl)-8-azaspiro[4.5]decan-1-amine] | – | 1000 to 10000 | 100 to 1000 | – |
| CC1(N)CCN(c2cnc(-c3cccc(Cl)c3Cl)c(N)n2)CC1 [SHP099, 6-(4-amino-4-methylpiperidin-1-yl)-3-(2,3-dichlorophenyl)pyrazin-2-amine, reference compound] | – | – | – | IC50 ([2]; Homo sapiens, MOLM-13, read-out: p-ERK IC50): 2070 nM |
| N[C@@H]1CCCC12CCN(c1ncc(Sc3cccc(NC(=O)c4c(O)nc5n(c4=O)CCCC5)c3Cl)c3nccn13)CC2 | – | – | – | IC50 [2, 10]: < 100 nM |
| NC1CCCCC12CCN(c1ncc(Sc3cccc(Cl)c3Cl)c3ncnn13)CC2 (centres unmarked) | – | 1000 to 10000 | 100 to 1000 | – |
| NCC1(c2ccccc2)CCN(c2ncc(Sc3cccc(Cl)c3Cl)c3nncn23)CC1 [(1-(8-((2,3-dichlorophenyl)thio)-[1,2,4]triazolo[4,3-c]pyrimidin-5-yl)-4-phenylpiperidin-4-yl)methanamine] | – | 100 to 1000 | < 100 | – |
| Nc1cc(Sc2cnc(N3CCC4(CC3)COC[C@H]4N)n3cnnc23)c(Cl)c(Cl)n1 [(S)-8-(8-((6-amino-2,3-dichloropyridin-4-yl)thio)-[1,2,4]triazolo[4,3-c]pyrimidin-5-yl)-2-oxa-8-azaspiro[4.5]decan-4-amine] | – | 1000 to 10000 | < 100 | – |
| CC1C[C@@H](N)C2(CCN(c3ncc(Sc4cc(N)nc(Cl)c4Cl)c4nccn34)CC2)C1 (stereo partly drawn) [(1R)-8-(8-((6-amino-2,3-dichloropyridin-4-yl)thio)imidazo[1,2-c]pyrimidin-5-yl)-3-methyl-8-azaspiro[4.5]decan-1-amine] | – | < 100 | < 100 | – |
| COc1ccccc1Sc1cnc(N2CCC3(CCC[C@H]3N)CC2)n2cnnc12 [(R)-8-(8-((2-methoxyphenyl)thio)-[1,2,4]triazolo[4,3-c]pyrimidin-5-yl)-8-azaspiro[4.5]decan-1-amine] | – | 100 to 1000 | 100 to 1000 | – |
| CC1C[C@@H](N)C2(CCN(c3ncc(Sc4cccc(Cl)c4Cl)c4nncn34)CC2)C1 (some centres unmarked) | – | – | – | IC50 [2, 10]: < 100 nM |
| Nc1cccc(Sc2cnc(N3CCC4(CCC[C@H]4N)CC3)n3ccnc23)c1Cl [(R)-8-(8-((3-amino-2-chlorophenyl)thio)imidazo[1,2-c]pyrimidin-5-yl)-8-azaspiro[4.5]decan-1-amine] | – | 100 to 1000 | 100 to 1000 | – |
| N[C@@H]1CCCC12CCN(c1ncc(Sc3ccncc3Cl)c3ncnn13)CC2 [(R)-8-(8-((3-chloropyridin-4-yl)thio)-[1,2,4]triazolo[1,5-c]pyrimidin-5-yl)-8-azaspiro[4.5]decan-1-amine] | – | 1000 to 10000 | 1000 to 10000 | – |
| N[C@@H]1CCCC12CCN(c1ncc(Sc3ccccc3)c3nccn13)CC2 [(R)-8-(8-(phenylthio)imidazo[1,2-c]pyrimidin-5-yl)-8-azaspiro[4.5]decan-1-amine] | – | 100 to 1000 | 100 to 1000 | – |
| N[C@@H]1CCCN(c2ncc(Sc3cccc(Cl)c3Cl)c3nncn23)CC1 [(R)-1-(8-((2,3-dichlorophenyl)thio)-[1,2,4]triazolo[4,3-c]pyrimidin-5-yl)azepan-4-amine] | – | 1000 to 10000 | 100 to 1000 | – |
| CC1(CN)CCN(c2ncc(Sc3cccc(Cl)c3Cl)c3nccn23)CC1 [(1-(8-((2,3-dichlorophenyl)thio)imidazo[1,2-c]pyrimidin-5-yl)-4-methylpiperidin-4-yl)methanamine] | – | 100 to 1000 | < 100 | – |
| CC1(N)CCN(c2ncc(Sc3cccc(Cl)c3Cl)c3nccn23)CC1 [1-(8-((2,3-dichlorophenyl)thio)imidazo[1,2-c]pyrimidin-5-yl)-4-methylpiperidin-4-amine] | – | 100 to 1000 | 100 to 1000 | – |
| N[C@@H]1CCCC12CCN(c1ncc(Sc3cccnc3Cl)c3nccn13)CC2 | 100 to 1000 | 100 to 1000 | – | – |
| N[C@@H]1CCCC12CCN(c1ncc(Sc3cccc4ccccc34)c3nncn13)CC2 [(R)-8-(8-(naphthalen-1-ylthio)-[1,2,4]triazolo[4,3-c]pyrimidin-5-yl)-8-azaspiro[4.5]decan-1-amine] | – | 100 to 1000 | < 100 | – |
| COC(=O)c1ccccc1Sc1cnc(N2CCC3(CCC[C@H]3N)CC2)n2ccnc12 [Methyl (R)-2-((5-(1-amino-8-azaspiro[4.5]decan-8-yl)imidazo[1,2-c]pyrimidin-8-yl)thio)benzoate] | – | 100 to 1000 | 100 to 1000 | – |
